Reference: patent US20120277281A1, “POLYNUCLEOTIDES FOR MEDICAL USE” (MAX-DELBRÜCK-CENTRUM FÜR MOLEKULARE MEDIZIN, priority 2009, published 2012)

Legend:
Type in all cases: cell-based, human
[1] = test system: canonical and non-canonical CSF1R transcripts; assay: RT-PCR of canonical and non-canonical CSF1R transcripts in Reh and Namalwa cells; conditions: single agent
Experimental: FIG. 7. Analysis of CSF1R LTR DNA methylation and CBFA2T3 expression. Expression of the transcriptional corepressor CBFA2T3 is lost in HRS cells. (A) Activation of the non-canonical CSF1R transcripts following treatment with TSA and/or 5-aza-dC. The non-HRS cell lines Reh and Namalwa were left untreated or treated with 5-aza-dC, TSA, or 5-aza-dC in combination with TSA. The expression of canonical and non-canonical CSF1R transcripts was analyzed by RT-PCR. The analysis of KM-H2 cells and of GAPDH expression were used as controls. (7A) Analysis of canonical and noncanonical CSF1R transcripts following treatment of Reh and Namalwa cells with TSA and/or 5-aza-dC. […] The expression of both canonical (+720 to +1,325) and noncanonical (−5,090 to +148 and −6152 to −143) CSF1R transcripts was analyzed by RT-PCR. […] GAPDH expression was analyzed as a control. […] (B) Various cell lines and primary CD19^+ human tonsilar B cells were analyzed for expression of CBFA2T3 mRNA by RT-PCR (upper panel) and protein by Western blotting (WB; lower panel) expression. […] Expression of GAPDH and β-actin were analyzed as controls. […] GAPDH and beta-actin expression were analyzed as controls. n.s., non-specific. […] Schematic overview of the regions analyzed for DNA methylation (upper panel) and results of bisulfite pyrosequencing in lymphoma/leukemia cell lines and controls (lower panel). […]

KM-H2 cells = assay: [3H]-thymidine incorporation in KM-H2 cells after CSF-1 inhibition; conditions: 80 μg/ml, pulsed after 24 h
Experimental: FIG. 3. HRS cells depend on CSF1R activity. (A) L540Cy cells were left untreated (−) or treated with the indicated amounts rhCSF-1 (closed bars) or the respective control (open bars) under serum reduced conditions (1% FCS). After 48 hours, cells were pulsed with 1 μCi [^3H]-thymidine per well for a further 20 hours, and [^3H]-thymidine incorporation was determined cpm, counts per minute. Data are represented as mean±SD. (3A) [^3H]-thymidine incorporation in L540Cy cells left untreated (−) or treated with the indicated amounts of rhCSF-1 (black bars) or water control (open bars) under serum-reduced conditions (1% FCS) determined after 48 h. Data are represented as means±s.d. […] After 24 hours, cells were pulsed with [^3H]-thymidine incorporation and analyzed as described in (A). […] CSF1R tyrosine phosphorylation was analyzed as described in FIG. 1F. […]
DNA synthesis was determined by [^3H]-thymidine incorporation assays using standard protocols. The percentage of viable and apoptotic cells was determined by annexin V-FITC/propidium iodide (PI) double-staining (Bender MedSystems) and subsequent FACS analysis.
We determined DNA synthesis by [^3H]-thymidine incorporation assays using standard protocols. In case of L540Cy cells (FIG. 1d), after 48 hours, cells were pulsed with 1 μCi [^3H]-thymidine per well for a further 20 hours, and [^3H]-thymidine incorporation was determined. […]

CSF1R = assay: rhCSF1-induced CSF1R tyrosine phosphorylation in DEL cells (IP, immunoblot); conditions: preincubation with CSF1R:Fc
Experimental: FIG. 9. (A) Analysis of CSF1 mRNA expression by Northern blot in various cell lines, as indicated. Expression of GAPDH was analyzed as a control. Note, that Hodgkin cell lines overexpress two splice variants compared to control cell lines Reh, Namalwa and BL60, which lack CSF1 expression. (B) To test the functionality of the decoy-receptor-like CSF1R:Fc inhibitor, anaplastic large cell lymphoma derived DEL cells, which show an abundant CSF1R expression (Mathas, S. et al., PNAS 106, 5831-5836 (2009)), were left untreated or stimulated with rhCSF1 with or without preincubation with CSF1R:Fc or the respective IgG1:Fc control. Thereafter, IP was performed with a CSF1R-specific antibody or the respective isotype control (IC), and CSF1R tyrosine phosphorylation was detected by immunoblot with antibody to phospho-tyrosine (p-Tyr; upper panel). As a control, the membrane was reprobed with antibody to CSF1R (lower panel). Note, that CSF1R:Fc prevents rhCSF-1 induced CSF1R phosphorylation.

| Compound | induction of canonical and non-canonical CSF1R transcripts [1] | [3H]-thymidine incorporation (KM-H2 cells) | rhCSF-1 induced CSF1R phosphorylation (CSF1R) |
| --- | --- | --- | --- |
| Nc1ncn([C@H]2C[C@H](O)[C@@H](CO)O2)c(=O)n1 [Compound 5-aza-dC, 5-aza-2′-deoxycytidine] | weakly induced | – | – |
| CC(/C=C/C(=O)NO)=C\[C@@H](C)C(=O)c1ccc(N(C)C)cc1 [TSA, Trichostatin A] | weakly induced | – | – |
| CSF1R:Fc: decoy-receptor-like inhibitor that binds to and neutralizes CSF-1 (329-MR, R&D Systems) | – | strong reduction | prevents |
